# Experimental data: patent US6147100A, “Pyrrolidine derivatives having phospholipase A2 inhibitory activity” (Shionogi & Co., Ltd., priority 1997, dated 2000)
# What was measured:
# cPLA2 = biological target: T1, cPLA2 (Homo sapiens, UniProt P47712); assay: cPLA2 Inhibitory Activity; assay type: biochemical; settings: 1-palmitoyl-2-[14C]-arachidonoyl-sn-glycero-3-phosphocholine 2.5 μM, sn-1,2-dioleoylglycerol 1.25 μM; pH 7.5, 15 min at 37° C.
# T1 sequence (P47712 1-749): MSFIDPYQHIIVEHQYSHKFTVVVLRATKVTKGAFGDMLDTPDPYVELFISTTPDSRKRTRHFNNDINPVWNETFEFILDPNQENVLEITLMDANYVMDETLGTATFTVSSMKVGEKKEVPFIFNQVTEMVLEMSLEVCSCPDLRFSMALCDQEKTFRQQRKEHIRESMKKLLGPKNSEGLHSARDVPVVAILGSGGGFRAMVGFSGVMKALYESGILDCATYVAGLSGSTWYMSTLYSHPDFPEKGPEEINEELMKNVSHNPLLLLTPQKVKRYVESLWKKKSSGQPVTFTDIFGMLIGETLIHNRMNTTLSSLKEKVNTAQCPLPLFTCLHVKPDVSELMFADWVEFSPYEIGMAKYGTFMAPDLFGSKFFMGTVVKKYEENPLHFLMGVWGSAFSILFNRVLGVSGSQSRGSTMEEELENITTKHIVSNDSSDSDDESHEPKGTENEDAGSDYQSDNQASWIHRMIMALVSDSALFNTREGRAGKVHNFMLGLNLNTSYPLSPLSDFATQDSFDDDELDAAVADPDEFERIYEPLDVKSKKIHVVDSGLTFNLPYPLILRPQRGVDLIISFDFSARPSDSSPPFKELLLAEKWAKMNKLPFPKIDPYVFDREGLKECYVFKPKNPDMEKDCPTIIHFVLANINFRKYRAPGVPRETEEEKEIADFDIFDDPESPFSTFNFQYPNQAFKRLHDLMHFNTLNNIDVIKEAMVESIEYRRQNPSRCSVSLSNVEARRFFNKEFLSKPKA
# How it was run: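 Radiometric assay in 50 mM HEPES pH 7.5 with 1 mM CaCl2, 150 mM NaCl, 0.1 mg/ml BSA and 1.7 mM DTT; compound and substrate added, reaction started with enzyme, 15 min at 37° C. Released fatty acids extracted (Dole method), counted by liquid scintillation versus no-compound control.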
# [1] = system: production of prostaglandin E2 by human fibroblasts; assay: Inhibition of Production of Prostaglandin E2 in Human Fibroblasts (IL-1 stimulation); assay type: cell-based; settings: Fibroblast; human fibroblasts under stimulation with IL-1
# How it was run: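 Human fibroblasts stimulated with IL-1, with prostaglandin E2 production measured in the presence of compound as a cellular read-out of cPLA2 inhibition.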
Structure (SMILES),IC50 (cPLA2),IC50 [1]
O=C1NC(=O)/C(=C/c2ccc(C(=O)NC[C@@H]3C[C@@H](Cc4ccccc4-c4ccccc4)CN3C(=O)c3ccccc3C(=O)c3ccc(F)cc3)cc2)S1 [Compound O-1],200 nM,760 nM
O=C1NC(=O)/C(=C/c2ccc(C(=O)NC[C@@H]3C[C@@H](Oc4ccc(/C=C/c5ccccc5)cc4)CN3C(=O)c3ccccc3C(=O)c3ccc(F)cc3)cc2)S1 [Compound A-82],50 nM,45 nM
Cc1ccccc1CO[C@@H]1C[C@@H](CNC(=O)c2ccc(/C=C3\SC(=O)NC3=O)cc2)N(C(=O)c2ccccc2C(=O)c2ccc(F)cc2)C1 [Compound A-5],580 nM,260 nM
Cc1cccc(-c2ccccc2O[C@@H]2C[C@@H](CNC(=O)c3ccc(/C=C4\SC(=O)NC4=O)cc3)N(C(=O)c3ccccc3C(=O)c3ccc(F)cc3)C2)c1 [Compound A-108],44 nM,470 nM
O=C1NC(=S)S/C1=C\c1ccc(COC[C@@H]2C[C@@H](OCc3ccccc3-c3ccccc3)CN2C(=O)c2ccccc2C(=O)c2ccc(F)cc2)cc1 [Compound C-2],1100 nM,2200 nM
O=C1NC(=O)/C(=C/c2ccc(C(=O)NC[C@@H]3C[C@H](OCc4ccccc4-c4ccccc4)CN3C(=O)c3ccccc3C(=O)c3ccc(F)cc3)cc2)S1 [Compound Q-3],200 nM,490 nM
O=C1NC(=O)/C(=C/c2ccc(C(=O)NC[C@@H]3C[C@@H](Oc4ccccc4C4CCCC4)CN3C(=O)c3ccccc3C(=O)c3ccc(F)cc3)cc2)S1 [Compound A-76],72 nM,520 nM
O=C1NC(=O)/C(=C/c2ccc(C(=O)NC[C@@H]3C[C@H](SCc4ccccc4-c4ccccc4)CN3C(=O)c3ccccc3C(=O)c3ccc(F)cc3)cc2)S1 [Compound I-1],100 nM,260 nM
O=C1NC(=O)/C(=C/c2ccc(C(=O)NC[C@@H]3C[C@@H](OCc4ccccc4-c4ccccc4)CN3C(=O)c3ccccc3C(=O)c3ccsc3)cc2)S1 [Compound A-18],1200 nM,380 nM
O=C1NC(=O)/C(=C/c2ccc(C(=O)NC[C@@H]3C[C@@H](OCc4ccccc4-c4ccccc4)CN3C(=O)CCC(=O)c3ccc(F)cc3)cc2)S1 [Compound A-6],4800 nM,8900 nM
O=C1NC(=O)/C(=C/c2ccc(C(=O)NC[C@@H]3C[C@@H](CCc4ccccc4-c4ccccc4)CN3C(=O)c3ccccc3C(=O)c3ccc(F)cc3)cc2)S1 [Compound O-3],55 nM,1100 nM
O=C1NC(=O)/C(=C/c2ccc(C(=O)NC[C@@H]3C[C@@H](N(Cc4ccccc4)Cc4ccccc4)CN3C(=O)c3ccccc3C(=O)c3ccc(F)cc3)cc2)S1 [Compound M-3],60 nM,3100 nM
O=C1NC(=O)/C(=C/c2ccc(C(=O)NC[C@H]3C[C@@H](SCc4ccccc4-c4ccccc4)CN3C(=O)c3ccccc3C(=O)c3ccc(F)cc3)cc2)S1 [Compound Q-1],2510 nM,1200 nM
O=C1NC(=O)/C(=C/c2ccc(C(=O)NC[C@@H]3C[C@@H](OCc4ccccc4Oc4ccccc4)CN3C(=O)c3ccccc3C(=O)c3ccc(F)cc3)cc2)S1 [Compound A-48],90 nM,620 nM
O=C1NC(=O)/C(=C/c2ccc(C(=O)NC[C@@H]3C[C@@H](Oc4ccc(-c5ccccc5)cc4)CN3C(=O)c3ccccc3C(=O)c3ccc(F)cc3)cc2)S1 [Compound A-70],90 nM,190 nM
O=C1NC(=O)/C(=C/c2ccc(NC(=O)[C@@H]3C[C@@H](SCc4ccccc4-c4ccccc4)CN3C(=O)c3ccccc3C(=O)c3ccc(F)cc3)cc2)S1 [Compound J-1],84 nM,120 nM
O=C1NC(=O)/C(=C/c2ccc(C(=O)NC[C@H]3C[C@H](OCc4ccccc4-c4ccccc4)CN3C(=O)c3ccccc3C(=O)c3ccc(F)cc3)cc2)S1 [Compound Q-5],1920 nM,1300 nM
CC(C)CN(C(c1ccccc1)c1ccccc1)[C@@H]1C[C@@H](CNC(=O)c2ccc(/C=C3\SC(=O)NC3=O)cc2)N(C(=O)c2ccccc2C(=O)c2ccc(F)cc2F)C1 [Compound M-17],4.1 nM,1000 nM

Structure (SMILES),IC50 (cPLA2),IC50 [1]
CCN(CC)c1cccc(O[C@@H]2C[C@@H](CNC(=O)c3ccc(/C=C4\SC(=O)NC4=O)cc3)N(C(=O)c3ccccc3C(=O)c3ccc(F)cc3)C2)c1 [Compound A-89],96 nM,490 nM
CN(Cc1ccccc1-c1ccccc1)[C@@H]1C[C@@H](C(=O)Nc2ccc(/C=C3\SC(=O)NC3=O)cc2)N(C(=O)c2ccccc2C(=O)c2ccc(F)cc2)C1 [Compound N-2],130 nM,1800 nM
CC(C)N(Cc1ccccc1-c1ccccc1)[C@@H]1C[C@@H](CNC(=O)c2ccc(/C=C3\SC(=O)NC3=O)cc2)N(C(=O)c2ccccc2C(=O)c2ccc(F)cc2)C1 [Compound M-9],39 nM,3600 nM
CC(C)(C)c1ccccc1O[C@@H]1C[C@@H](CNC(=O)c2ccc(/C=C3\SC(=O)NC3=O)cc2)N(C(=O)c2ccccc2C(=O)c2ccc(F)cc2)C1 [Compound A-75],190 nM,2200 nM
O=C1NC(=O)/C(=C/c2ccc(CC[C@@H]3C[C@@H](OCc4ccccc4-c4ccccc4)CN3C(=O)c3ccccc3C(=O)c3ccc(F)cc3)cc2)S1 [Compound E-2],280 nM,1100 nM
O=C1NC(=O)/C(=C/c2ccc(C(=O)NC[C@@H]3C[C@@H](Oc4ccccc4-c4ccccc4)CN3C(=O)c3ccccc3C(=O)c3ccc(F)cc3)cc2)S1 [Compound A-67],69 nM,390 nM
O=C1NC(=O)/C(=C/c2ccc(NC(=O)[C@@H]3C[C@@H](SCc4ccccc4-c4ccccc4)CN3C(=O)c3ccccc3C(=O)c3ccc(F)cc3)s2)S1 [Compound J-3],430 nM,5700 nM
O=C1NC(=O)/C(=C/c2ccc(C(=O)NC[C@@H]3C[C@@H](Oc4ccccc4Oc4ccccc4)CN3C(=O)c3ccccc3C(=O)c3ccc(F)cc3)cc2)S1 [Compound A-119],30 nM,2800 nM
O=C1NC(=S)S/C1=C\c1ccc(NC(=O)[C@@H]2C[C@@H](OCc3ccccc3-c3ccccc3)CN2C(=O)c2ccccc2C(=O)c2ccc(Cl)cc2)cc1 [Compound B-4],130 nM,5600 nM
O=C1NC(=O)/C(=C/c2ccc(NC(=O)[C@@H]3C[C@@H](OCc4ccccc4-c4ccccc4)CN3C(=O)c3ccccc3C(=O)c3ccc(Cl)cc3)cc2)S1 [Compound B-3],420 nM,3900 nM
Cc1ccc(C(=O)c2ccccc2C(=O)N2C[C@H](OCc3ccccc3-c3ccccc3)C[C@H]2C(=O)Nc2ccc(/C=C3\SC(=O)NC3=O)cc2)cc1 [Compound B-5],440 nM,7400 nM
O=C1NC(=O)/C(=C/c2ccc(C(=O)NC[C@@H]3C[C@@H](Oc4ccccc4-c4cccc(-c5ccccc5)c4)CN3C(=O)c3ccccc3C(=O)c3ccc(F)cc3)cc2)S1 [Compound A-112],65 nM,1700 nM
Cc1ccc(C(=O)c2ccccc2C(=O)N2C[C@H](OCc3ccccc3-c3ccccc3)C[C@H]2C(=O)Nc2ccc(/C=C3\SC(=S)NC3=O)cc2)cc1 [Compound B-6],140 nM,7100 nM
O=C1NC(=O)/C(=C/c2ccc(C(=O)NC[C@@H]3C[C@@H](Oc4cccc(-c5ccc6ccccc6c5)c4)CN3C(=O)c3ccccc3C(=O)c3ccc(F)cc3)cc2)S1 [Compound A-84],33 nM,250 nM
O=C1NC(=O)/C(=C/c2ccc(C(=O)NC[C@@H]3C[C@@H](OCc4ccccc4-c4cccc([N+](=O)[O-])c4)CN3C(=O)c3ccccc3C(=O)c3ccc(F)cc3)cc2)S1 [Compound A-45],74 nM,380 nM
CN(C)c1cccc(O[C@@H]2C[C@@H](CNC(=O)c3ccc(/C=C4\SC(=O)NC4=O)cc3)N(C(=O)c3ccccc3C(=O)c3ccc(F)cc3)C2)c1 [Compound A-87],180 nM,330 nM
CC(C)CN(Cc1ccccc1)[C@@H]1C[C@@H](CNC(=O)c2ccc(/C=C3\SC(=O)NC3=O)cc2)N(C(=O)c2ccccc2C(=O)c2ccc(F)cc2)C1 [Compound M-5],100 nM,3000 nM
